Experimental data as given in patent US8288428B2, “Compounds as cannabinoid receptor ligands” (Abbott Laboratories, priority 2009, dated 2012).
pKi: −log10 of the molar value. Read-outs that look alike come from different tables or passages of the source.

Experiments:
human CB2 receptors = biological target: T1, human CB2 receptors (Homo sapiens, UniProt P34972); assay: human CB2 radioligand binding assay
T1 construct: expressed in transfected cells; membrane preparation
Protocol: (§1) (i) In Vitro Methods—CB2 and CB1 Radioligand Binding Assays:
(§2) The CB1 and CB2 radioligand binding assays described herein are utilized to ascertain the selectivity of compounds of the present application for binding to CB2 relative to CB1 receptors.
(§3) HEK293 cells stably expressing human CB2 receptors were grown until a confluent monolayer was formed. Briefly, the cells were harvested and homogenized in TE buffer (50 mM Tris-HCl, 1 mM MgCl2, and 1 mM EDTA) using a polytron for 2×10 second bursts in the presence of protease inhibitors, followed by centrifugation at 45,000×g for 20 minutes. The final membrane pellet was re-homogenized in storage buffer (50 mM Tris-HCl, 1 mM MgCl2, and 1 mM EDTA and 10% sucrose) and frozen at −78° C. until used. Saturation binding reactions were initiated by the addition of membrane preparation (protein concentration of 5 μg/well for human CB2) into wells of a deep well plate containing [^3H]CP-55,940 (120 Ci/mmol, a nonselective CB agonist commercially available from Tocris) in assay buffer (50 mM Tris, 2.5 mM EDTA, 5 mM MgCl2, and 0.5 mg/mL fatty acid free BSA, pH 7.4). After 90 min incubation at 30° C., binding reaction was terminated by the addition of 300 μL/well of cold assay buffer followed by rapid vacuum filtration through a UniFilter-96 GF/C filter plates (pre-soaked in 1 mg/mL BSA for 2 hours). The bound activity was counted in a TopCount using Microscint-20. Saturation experiments were conducted with twelve concentrations of [^3H]CP-55,940 ranging from 0.01 to 8 nM. Competition experiments were conducted with 0.5 nM [^3H]CP-55,940 and five concentrations (0.01 nM to 10 μM) of displacing ligands. The addition of 10 μM unlabeled CP-55,940 (Tocris, Ellisville, Mo.) was used to assess nonspecific binding.

rat CB2 receptors = biological target: T2, rat CB2 receptors (Rattus norvegicus, UniProt Q9QZN9); assay: rat CB2 radioligand binding assay
T2 construct: expressed in transfected cells; membrane preparation
T2 sequence (Q9QZN9 1-360): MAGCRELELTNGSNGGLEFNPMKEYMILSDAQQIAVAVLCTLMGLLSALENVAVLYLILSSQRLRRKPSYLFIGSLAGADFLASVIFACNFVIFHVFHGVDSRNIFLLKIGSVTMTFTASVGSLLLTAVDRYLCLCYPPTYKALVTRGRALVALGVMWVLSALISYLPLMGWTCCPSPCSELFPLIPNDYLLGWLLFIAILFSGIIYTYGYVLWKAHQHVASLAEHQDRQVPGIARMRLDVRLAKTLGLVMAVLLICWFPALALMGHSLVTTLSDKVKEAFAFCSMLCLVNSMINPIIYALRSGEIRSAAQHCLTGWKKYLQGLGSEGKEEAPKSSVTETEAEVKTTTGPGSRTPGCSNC
Protocol: as §1, §2
as §3, with “expressing rat” for “expressing human”, “of 20” for “of 5”, “for rat” for “for human”, “After 45” for “After 90”, “concentrations of displacing ligands selected from the range of 0.01” for “concentrations (0.01”, “10 μM.” for “10 μM) of displacing ligands.”

[1] = competition with 0.5 nM [3H]CP-55,940, HEK293 membranes expressing human CB2, read-out: human CB2 binding (Ki)
[2] = competition with 0.5 nM [3H]CP-55,940, HEK293 membranes expressing rat CB2, read-out: rat CB2 binding (Ki)

T1 sequence (P34972 whole entry): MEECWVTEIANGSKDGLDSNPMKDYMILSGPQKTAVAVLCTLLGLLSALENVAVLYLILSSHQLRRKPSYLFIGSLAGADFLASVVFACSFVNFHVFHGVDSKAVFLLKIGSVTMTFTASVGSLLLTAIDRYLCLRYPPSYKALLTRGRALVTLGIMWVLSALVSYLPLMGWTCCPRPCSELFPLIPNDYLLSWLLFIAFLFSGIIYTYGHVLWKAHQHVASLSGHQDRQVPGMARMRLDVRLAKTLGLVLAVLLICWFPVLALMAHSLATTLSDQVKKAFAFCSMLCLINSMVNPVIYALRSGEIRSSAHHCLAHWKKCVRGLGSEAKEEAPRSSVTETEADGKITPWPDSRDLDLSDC

SMILES | pKi (human CB2 receptors) | pKi (rat CB2 receptors) | pKi (human CB2 receptors; [1]) | pKi (rat CB2 receptors; [2])
Cn1c(C(C)(C)C)c/c(=N\C(=O)c2cc(C(F)(F)F)ccc2CN2CC(C)(O)C2)n1CC1CC1 [Example 10, N-[(3E)-5-tert-butyl-2-(cyclopropylmethyl)-1-methyl-1,2-dihydro-3H-pyrazol-3-ylidene]-2-[(3-hydroxy-3-methylazetidin-1-yl)methyl]-5-(trifluoromethyl)benzamide] | 6.73 | 6.97 | – | –
Cn1c(C(C)(C)C)c/c(=N\C(=O)c2cc(C(F)(F)F)ccc2CN2CC(O)C2)n1CC1CC1 [Example 9, N-[(3E)-5-tert-butyl-2-(cyclopropylmethyl)-1-methyl-1,2-dihydro-3H-pyrazol-3-ylidene]-2-[(3-hydroxyazetidin-1-yl)methyl]-5-(trifluoromethyl)benzamide] | 7.52 | 7.61 | – | –
CCCCn1/c(=N/C(=O)c2cc(C(F)(F)F)ccc2CN2CC(C)(O)C2)cc(C(C)(C)C)n1C [Example 12, N-[(3E)-2-butyl-5-tert-butyl-1-methyl-1,2-dihydro-3H-pyrazol-3-ylidene]-2-[(3-hydroxy-3-methylazetidin-1-yl)methyl]-5-(trifluoromethyl)benzamide] | – | – | 6.85 | 6.75
Cn1c(C(C)(C)C)c/c(=N\C(=O)c2cc(C(F)(F)F)ccc2/C=C/C(C)(C)O)n1CC1CCC1 [Example 6, N-[(3E)-5-tert-butyl-2-(cyclobutylmethyl)-1-methyl-1,2-dihydro-3H-pyrazol-3-ylidene]-2-[(1E)-3-hydroxy-3-methylbut-1-enyl]-5-(trifluoromethyl)benzamide] | 7.96 | 8.48 | – | –
CCCn1/c(=N/C(=O)c2cc(C(F)(F)F)ccc2/C=C/C(C)(C)O)cc(C(C)(C)C)n1C [Example 5, N-[(3E)-5-tert-butyl-1-methyl-2-propyl-1,2-dihydro-3H-pyrazol-3-ylidene]-2-[(1E)-3-hydroxy-3-methylbut-1-enyl]-5-(trifluoromethyl)benzamide] | 6.56 | 7.05 | – | –
CCCCCn1/c(=N/C(=O)c2cc(C(F)(F)F)ccc2CCC(C)(C)O)cc(C(C)(C)C)n1C [Example 2, N-[(3E)-5-tert-butyl-1-methyl-2-pentyl-1,2-dihydro-3H-pyrazol-3-ylidene]-2-(3-hydroxy-3-methylbutyl)-5-(trifluoromethyl)benzamide] | 7.49 | 7.60 | – | –
COCCCn1/c(=N/C(=O)c2cc(C(F)(F)F)ccc2CCC(C)(C)O)cc(C(C)(C)C)n1C [Example 15, N-[(3E)-5-tert-butyl-2-(3-methoxypropyl)-1-methyl-1,2-dihydro-3H-pyrazol-3-ylidene]-2-(3-hydroxy-3-methylbutyl)-5-(trifluoromethyl)benzamide] | – | – | – | 6.66
Cn1c(C(C)(C)C)c/c(=N\C(=O)c2cc(C(F)(F)F)ccc2CCC(C)(C)O)n1CC1CCC1 [Example 7, N-[(3E)-5-tert-butyl-2-(cyclobutylmethyl)-1-methyl-1,2-dihydro-3H-pyrazol-3-ylidene]-2-(3-hydroxy-3-methylbutyl)-5-(trifluoromethyl)benzamide] | 7.68 | 7.77 | – | –
CCCCn1/c(=N/C(=O)c2cc(C(F)(F)F)ccc2CN2CC(O)C2)cc(C(C)(C)C)n1C [Example 24, N-[(3E)-2-butyl-5-tert-butyl-1-methyl-1,2-dihydro-3H-pyrazol-3-ylidene]-2-[(3-hydroxyazetidin-1-yl)methyl]-5-(trifluoromethyl)benzamide] | – | 7.06 | 6.93 | –
CCCCn1nc(C(C)(C)C)s/c1=N\C(=O)c1cc(C(F)(F)F)ccc1CN1CC[C@@H](O)C1 [Example 19, N-[(2Z)-3-butyl-5-tert-butyl-1,3,4-thiadiazol-2(3H)-ylidene]-2-{[(3R)-3-hydroxypyrrolidin-1-yl]methyl}-5-(trifluoromethyl)benzamide] | 7.81 | 8.41 | – | –
CCCCn1/c(=N/C(=O)c2cc(C(F)(F)F)ccc2CCC(C)(C)O)cc(C(C)(C)C)n1C [Example 1, N-[(3E)-2-butyl-5-tert-butyl-1-methyl-1,2-dihydro-3H-pyrazol-3-ylidene]-2-(3-hydroxy-3-methylbutyl)-5-(trifluoromethyl)benzamide] | – | – | 6.88 | 6.99
CCCCn1/c(=N/C(=O)c2cc(C(F)(F)F)ccc2COCC(C)(C)O)cc(C(C)(C)C)n1C [Example 25, N-[(3E)-2-butyl-5-tert-butyl-1-methyl-1,2-dihydro-3H-pyrazol-3-ylidene]-2-[(2-hydroxy-2-methylpropoxy)methyl]-5-(trifluoromethyl)benzamide] | 7.60 | 7.75 | – | –
Cn1c(C(C)(C)C)c/c(=N\C(=O)c2cc(C(F)(F)F)ccc2/C=C/C(C)(C)O)n1CC1CC1 [Example 3, N-[(3E)-5-tert-butyl-2-(cyclopropylmethyl)-1-methyl-1,2-dihydro-3H-pyrazol-3-ylidene]-2-[(1E)-3-hydroxy-3-methylbut-1-enyl]-5-(trifluoromethyl)benzamide] | 7.38 | 7.43 | – | –
CCCCn1nc(C(C)(C)C)s/c1=N\C(=O)c1cc(C(F)(F)F)ccc1CN1CC(C(=O)OC)C1 [Example 21, methyl 1-[2-({[(2Z)-3-butyl-5-tert-butyl-1,3,4-thiadiazol-2(3H)-ylidene]amino}carbonyl)-4-(trifluoromethyl)benzyl]azetidine-3-carboxylate] | 8.41 | 8.75 | – | –
CCCCn1/c(=N/C(=O)c2cc(C(F)(F)F)ccc2CN2CC[C@@H](O)C2)cc(C(C)(C)C)n1C [Example 13, N-[(3E)-2-butyl-5-tert-butyl-1-methyl-1,2-dihydro-3H-pyrazol-3-ylidene]-2-{[(3R)-3-hydroxypyrrolidin-1-yl]methyl}-5-(trifluoromethyl)benzamide] | – | – | – | 6.34
CCCCn1nc(C(C)(C)C)s/c1=N\C(=O)c1cc(C(F)(F)F)ccc1CN1CC[C@H](O)C1 [Example 18, N-[(2Z)-3-butyl-5-tert-butyl-1,3,4-thiadiazol-2(3H)-ylidene]-2-{[(3S)-3-hydroxypyrrolidin-1-yl]methyl}-5-(trifluoromethyl)benzamide] | 7.83 | 8.80 | – | –
CCCCn1nc(C(C)(C)C)s/c1=N\C(=O)c1cc(C(F)(F)F)ccc1CN1CC(C)(O)C1 [Example 17, N-[(2Z)-3-butyl-5-tert-butyl-1,3,4-thiadiazol-2(3H)-ylidene]-2-[(3-hydroxy-3-methylazetidin-1-yl)methyl]-5-(trifluoromethyl)benzamide] | 8.23 | 8.84 | – | –
CCCCn1/c(=N/C(=O)c2cc(C(F)(F)F)ccc2CC(=O)OC(C)(C)C)cc(C(C)(C)C)n1C [Example 23, tert-butyl[2-({[(3E)-2-butyl-5-tert-butyl-1-methyl-1,2-dihydro-3H-pyrazol-3-ylidene]amino}carbonyl)-4-(trifluoromethyl)phenyl]acetate] | – | 7.10 | 6.57 | –
Cn1c(C(C)(C)C)c/c(=N\C(=O)c2cc(C(F)(F)F)ccc2CCC(C)(C)O)n1CC1CC1 [Example 4, N-[(3E)-5-tert-butyl-2-(cyclopropylmethyl)-1-methyl-1,2-dihydro-3H-pyrazol-3-ylidene]-2-(3-hydroxy-3-methylbutyl)-5-(trifluoromethyl)benzamide] | 6.82 | 6.92 | – | –
